Measurements from publication PMC3382171 (PLoS ONE, 2012).

Experiments:
Test in all cases: biochemical
Parameters in all cases: University of Dundee kinase panel, percent inhibition of phosphorylation at 1 uM RAFi, ATP at Km
Conditions in all cases: read-out: Dundee KSS %inh at 1 uM
P70S6K = molecular target: T1, P70S6K (Homo sapiens, UniProt P23443)
T1 construct: gene RPS6KB1
Method: (§1) The METi and RAFi were screened against kinase panels (SelectScreen, Invitrogen; University of Dundee, Division of Signal Transduction Therapy, UK; Upstate Biotechnology/Millipore, Billerica, MA). In these selectivity assays the concentration of ATP was set to the Km value of ATP for each kinase tested to allow for a relative potency comparison between the various kinases. The compounds were tested at 1 µM final concentration. […] Supplementary file pone.0039653.s002.pdf: Figure S2 Kinase Selectivity Screen of RAFi. (A) Kinase selectivity screen (KSS) performed at University of Dundee (Division of Signal Transduction Therapy). Values in % inhibition of phosphorylation given 1 µM of RAFi compared to control. (B) KSS performed at Invitrogen (Selectscreen Service) compared to control. Values in % inhibition of phosphorylation given 1 µM of RAFi. (C) Cell based dose response kinase inhibition of indicated kinases by RAFi. (PDF) Click here for additional data file.

MLCK = molecular target: T2, MLCK (Homo sapiens, UniProt Q15746)
T2 construct: gene MYLK
Method: as §1

PDK1 = molecular target: T3, PDK1 (Homo sapiens, UniProt O15530)
T3 construct: gene PDPK1
Method: as §1

ERK7 = molecular target: T4, ERK7 (Homo sapiens, UniProt Q8TD08)
T4 construct: gene MAPK15
T4 sequence (Q8TD08 whole entry): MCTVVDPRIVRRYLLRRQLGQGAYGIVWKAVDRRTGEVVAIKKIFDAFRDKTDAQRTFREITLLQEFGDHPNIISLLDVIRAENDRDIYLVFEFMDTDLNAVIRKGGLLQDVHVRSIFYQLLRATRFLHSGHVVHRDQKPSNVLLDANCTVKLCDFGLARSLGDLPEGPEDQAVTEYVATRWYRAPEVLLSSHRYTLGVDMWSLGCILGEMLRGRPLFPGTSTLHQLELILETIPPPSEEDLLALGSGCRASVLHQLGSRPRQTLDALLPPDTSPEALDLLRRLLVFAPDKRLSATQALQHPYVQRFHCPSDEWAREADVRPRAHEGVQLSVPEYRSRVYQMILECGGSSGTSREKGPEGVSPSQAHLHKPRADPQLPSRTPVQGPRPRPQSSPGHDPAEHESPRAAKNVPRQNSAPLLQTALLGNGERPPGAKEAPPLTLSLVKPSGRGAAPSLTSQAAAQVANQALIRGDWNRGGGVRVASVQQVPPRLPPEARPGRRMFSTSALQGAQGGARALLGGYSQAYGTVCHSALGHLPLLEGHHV
Method: as §1

p38 = molecular target: T5, p38 (Homo sapiens, UniProt Q16539)
T5 construct: gene MAPK14
T5 sequence (Q16539 whole entry): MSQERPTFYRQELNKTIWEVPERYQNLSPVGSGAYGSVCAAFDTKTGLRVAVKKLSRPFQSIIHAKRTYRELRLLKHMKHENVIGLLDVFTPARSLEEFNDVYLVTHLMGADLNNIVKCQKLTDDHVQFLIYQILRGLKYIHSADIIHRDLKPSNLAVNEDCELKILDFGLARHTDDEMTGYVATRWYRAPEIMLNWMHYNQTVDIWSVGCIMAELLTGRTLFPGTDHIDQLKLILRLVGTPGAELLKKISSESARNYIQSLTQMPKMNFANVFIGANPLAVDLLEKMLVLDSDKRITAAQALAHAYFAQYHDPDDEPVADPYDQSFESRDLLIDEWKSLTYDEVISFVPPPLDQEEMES
Method: as §1

CaMK1a = molecular target: T6, CaMK1a (Homo sapiens, UniProt Q14012)
T6 construct: gene CAMK1
T6 sequence (Q14012 whole entry): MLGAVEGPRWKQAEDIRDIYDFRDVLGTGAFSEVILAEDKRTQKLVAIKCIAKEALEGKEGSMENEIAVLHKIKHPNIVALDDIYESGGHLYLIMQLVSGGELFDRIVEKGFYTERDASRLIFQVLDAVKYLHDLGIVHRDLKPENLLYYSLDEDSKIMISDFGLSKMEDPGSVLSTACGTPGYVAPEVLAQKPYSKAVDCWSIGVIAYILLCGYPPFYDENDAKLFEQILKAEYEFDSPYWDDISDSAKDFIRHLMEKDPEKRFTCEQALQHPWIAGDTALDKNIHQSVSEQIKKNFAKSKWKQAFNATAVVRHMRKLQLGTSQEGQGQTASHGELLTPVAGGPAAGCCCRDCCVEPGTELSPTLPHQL
Method: as §1

CHK1 = molecular target: T7, CHK1 (Homo sapiens, UniProt O14757)
T7 construct: gene CHEK1
Method: as §1

mouse LCK = mouse LCK (Mus musculus, UniProt P06240)
mouse LCK, sequence (P06240 whole entry): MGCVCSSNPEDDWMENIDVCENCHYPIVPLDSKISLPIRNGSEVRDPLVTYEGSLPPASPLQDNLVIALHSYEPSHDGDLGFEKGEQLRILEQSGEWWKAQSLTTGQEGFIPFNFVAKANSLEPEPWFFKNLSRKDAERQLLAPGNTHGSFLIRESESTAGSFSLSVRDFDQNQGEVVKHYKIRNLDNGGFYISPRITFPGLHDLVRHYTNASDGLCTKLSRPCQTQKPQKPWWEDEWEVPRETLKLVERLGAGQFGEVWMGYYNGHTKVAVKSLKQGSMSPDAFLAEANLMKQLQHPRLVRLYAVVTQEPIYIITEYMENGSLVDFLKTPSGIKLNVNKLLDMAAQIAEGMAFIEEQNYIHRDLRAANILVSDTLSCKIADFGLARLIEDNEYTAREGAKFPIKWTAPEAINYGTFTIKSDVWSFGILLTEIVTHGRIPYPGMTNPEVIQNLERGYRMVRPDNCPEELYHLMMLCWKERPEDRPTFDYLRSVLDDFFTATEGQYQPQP
Method: as §1

MNK1 = molecular target: T8, MNK1 (Homo sapiens, UniProt Q9BUB5)
T8 construct: gene MKNK1
Method: as §1

chicken CSK = chicken CSK (Gallus gallus, UniProt P41239)
chicken CSK, sequence (P41239 whole entry): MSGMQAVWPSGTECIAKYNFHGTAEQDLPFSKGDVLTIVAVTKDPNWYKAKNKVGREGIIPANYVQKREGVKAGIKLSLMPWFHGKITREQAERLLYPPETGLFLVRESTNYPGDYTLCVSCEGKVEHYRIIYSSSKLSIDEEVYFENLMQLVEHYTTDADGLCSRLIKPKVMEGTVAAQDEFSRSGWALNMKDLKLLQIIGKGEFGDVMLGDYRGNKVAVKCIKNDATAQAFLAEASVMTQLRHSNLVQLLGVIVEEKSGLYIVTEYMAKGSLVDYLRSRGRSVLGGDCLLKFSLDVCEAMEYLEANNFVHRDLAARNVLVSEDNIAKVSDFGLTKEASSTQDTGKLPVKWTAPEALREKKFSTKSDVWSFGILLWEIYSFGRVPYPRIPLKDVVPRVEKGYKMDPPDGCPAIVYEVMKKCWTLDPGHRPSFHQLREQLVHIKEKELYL
Method: as §1

IKKb = molecular target: T9, IKKb (Homo sapiens, UniProt O14920)
T9 construct: gene IKBKB
Method: as §1

EEF-2 kinase = molecular target: T10, EEF-2 kinase (Homo sapiens, UniProt O00418)
T10 construct: gene EEF2K
T10 sequence (O00418 whole entry): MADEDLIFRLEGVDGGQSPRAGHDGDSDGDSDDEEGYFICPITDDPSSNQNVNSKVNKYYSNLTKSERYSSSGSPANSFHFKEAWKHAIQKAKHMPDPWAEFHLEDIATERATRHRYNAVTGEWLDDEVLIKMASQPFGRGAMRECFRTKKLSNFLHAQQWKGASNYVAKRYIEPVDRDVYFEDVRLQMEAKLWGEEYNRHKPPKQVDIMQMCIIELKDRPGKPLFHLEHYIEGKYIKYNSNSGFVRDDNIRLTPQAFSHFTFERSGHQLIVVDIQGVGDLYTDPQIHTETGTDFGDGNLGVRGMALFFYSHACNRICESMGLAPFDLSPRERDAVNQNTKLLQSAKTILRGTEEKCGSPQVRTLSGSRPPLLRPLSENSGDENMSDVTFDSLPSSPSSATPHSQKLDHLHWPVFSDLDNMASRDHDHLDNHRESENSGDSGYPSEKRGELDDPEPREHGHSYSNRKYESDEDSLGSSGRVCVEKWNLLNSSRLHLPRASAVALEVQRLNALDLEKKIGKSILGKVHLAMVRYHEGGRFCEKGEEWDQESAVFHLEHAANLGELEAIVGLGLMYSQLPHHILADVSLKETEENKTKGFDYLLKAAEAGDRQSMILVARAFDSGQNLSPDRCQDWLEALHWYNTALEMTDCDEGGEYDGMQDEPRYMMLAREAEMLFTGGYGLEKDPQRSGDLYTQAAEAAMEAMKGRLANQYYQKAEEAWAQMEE
Method: as §1

JNK1a = molecular target: T11, JNK1a (Homo sapiens, UniProt P45983)
T11 construct: gene MAPK8; isoform alpha
Method: as §1

PIM1 = PIM1 (Homo sapiens, UniProt P11309)
PIM1, sequence (P11309 whole entry): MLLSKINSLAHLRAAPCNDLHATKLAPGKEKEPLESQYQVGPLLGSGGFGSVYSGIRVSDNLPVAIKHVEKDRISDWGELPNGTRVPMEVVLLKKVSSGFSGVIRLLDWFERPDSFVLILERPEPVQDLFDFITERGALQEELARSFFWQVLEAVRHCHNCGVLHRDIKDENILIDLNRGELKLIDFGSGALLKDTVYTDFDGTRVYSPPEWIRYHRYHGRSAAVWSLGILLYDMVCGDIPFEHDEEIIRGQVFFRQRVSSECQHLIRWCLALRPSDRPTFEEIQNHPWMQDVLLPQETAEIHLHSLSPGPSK
Method: as §1

mouse ERK2 = molecular target: T12, mouse ERK2 (Mus musculus, UniProt P63085)
T12 construct: gene Mapk1
Method: as §1

rabbit MEK1 = molecular target: T13, rabbit MEK1 (Oryctolagus cuniculus, UniProt P29678)
T13 construct: gene MAP2K1
Method: as §1

DYRK3 = DYRK3 (Homo sapiens, UniProt O43781)
Method: as §1

PKD1 = molecular target: T14, PKD1 (Homo sapiens, UniProt Q15139)
T14 construct: gene PRKD1
T14 sequence (Q15139 whole entry): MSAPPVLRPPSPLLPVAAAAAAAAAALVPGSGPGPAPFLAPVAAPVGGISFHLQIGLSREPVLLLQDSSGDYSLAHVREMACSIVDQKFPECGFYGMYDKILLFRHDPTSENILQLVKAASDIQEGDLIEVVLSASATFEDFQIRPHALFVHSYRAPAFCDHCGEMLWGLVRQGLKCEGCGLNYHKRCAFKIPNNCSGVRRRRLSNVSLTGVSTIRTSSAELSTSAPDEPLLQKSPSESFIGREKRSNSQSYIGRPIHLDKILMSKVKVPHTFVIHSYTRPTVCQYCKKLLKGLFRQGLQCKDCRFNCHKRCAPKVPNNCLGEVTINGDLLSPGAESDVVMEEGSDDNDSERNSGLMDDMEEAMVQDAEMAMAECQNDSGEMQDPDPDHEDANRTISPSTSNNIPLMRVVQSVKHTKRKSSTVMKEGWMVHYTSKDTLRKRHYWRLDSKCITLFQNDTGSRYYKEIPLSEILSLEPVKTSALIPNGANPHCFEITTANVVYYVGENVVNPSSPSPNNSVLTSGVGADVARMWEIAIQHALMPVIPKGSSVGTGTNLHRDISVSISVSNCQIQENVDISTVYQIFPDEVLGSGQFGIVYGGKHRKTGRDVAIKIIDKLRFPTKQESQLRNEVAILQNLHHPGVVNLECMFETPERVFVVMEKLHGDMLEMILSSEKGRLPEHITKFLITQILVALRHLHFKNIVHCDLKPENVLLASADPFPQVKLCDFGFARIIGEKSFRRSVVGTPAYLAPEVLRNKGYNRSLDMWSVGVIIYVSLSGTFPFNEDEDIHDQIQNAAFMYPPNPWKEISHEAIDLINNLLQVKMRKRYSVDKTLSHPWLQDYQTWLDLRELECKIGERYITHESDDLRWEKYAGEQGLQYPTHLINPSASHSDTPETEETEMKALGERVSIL
Method: as §1

CSK = CSK (Homo sapiens, UniProt P41240)
Method: as §1

RSK2 = molecular target: T15, RSK2 (Homo sapiens, UniProt P51812)
T15 construct: gene RPS6KA3
Method: as §1

T1 sequence (P23443 whole entry): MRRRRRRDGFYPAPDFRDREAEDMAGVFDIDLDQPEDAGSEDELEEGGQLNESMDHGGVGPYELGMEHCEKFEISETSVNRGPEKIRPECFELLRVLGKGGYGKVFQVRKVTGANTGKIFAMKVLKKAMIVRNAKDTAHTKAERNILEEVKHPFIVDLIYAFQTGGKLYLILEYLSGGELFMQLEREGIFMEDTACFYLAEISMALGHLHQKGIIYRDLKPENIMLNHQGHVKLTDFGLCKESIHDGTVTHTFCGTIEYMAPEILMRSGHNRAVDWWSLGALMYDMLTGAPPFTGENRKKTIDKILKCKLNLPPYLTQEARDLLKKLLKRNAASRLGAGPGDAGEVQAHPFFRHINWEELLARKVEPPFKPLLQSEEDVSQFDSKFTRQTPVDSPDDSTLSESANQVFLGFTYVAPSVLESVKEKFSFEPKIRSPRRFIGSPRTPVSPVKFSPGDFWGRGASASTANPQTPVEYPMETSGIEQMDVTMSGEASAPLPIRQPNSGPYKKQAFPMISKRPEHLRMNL

inhibition at 1 µM (P70S6K): -5%
inhibition at 1 µM (MLCK): 22%
inhibition at 1 µM (PDK1): 11%
inhibition at 1 µM (p38): 96%
inhibition at 1 µM (CaMK1a): 18%
inhibition at 1 µM (CHK1): 2%
inhibition at 1 µM (mouse LCK): 22%
inhibition at 1 µM (MNK1): 7%
inhibition at 1 µM (chicken CSK): 27%
inhibition at 1 µM (IKKb): 4%
inhibition at 1 µM (EEF-2 kinase): 0%
inhibition at 1 µM (JNK1a): 62%
inhibition at 1 µM (PIM1): 4%
inhibition at 1 µM (mouse ERK2): 48%
inhibition at 1 µM (rabbit MEK1): 34%
inhibition at 1 µM (DYRK3): 11%
inhibition at 1 µM (PKD1): 47%
inhibition at 1 µM (CSK): -4%
inhibition at 1 µM (RSK2): 30%
Compound: N#CCCNc1nccc(-c2cn(CC(F)F)nc2-c2cnc3[nH]ccc3c2)n1 [RAFi, PF-04880594]
inhibition at 1 µM (ERK7): 16%
